The values that follow come from ChEMBL document CHEMBL1275476, “Emergence of macrolide resistance gene mph(B) in Streptococcus uberis and cooperative effects with rdmC-like gene” (2008).

≈ marks a conversion by molar mass, not a printed value.

Holding throughout (assay type): functional
Assay [1] relates to Streptococcus uberis. The assay is described as follows: Antimicrobial activity against Streptococcus uberis UCN61 by broth microdilution method. On the technique in general: In broth dilution the organism is exposed to a series of concentrations in liquid medium.
Assay [2] concerns Streptococcus uberis. The assay is described as follows: Antimicrobial activity against Streptococcus uberis UCN60 expressing mph(B) and rdmC-like genes by broth microdilution method.
The subject of assay [3] is Staphylococcus aureus. The assay is described as follows: Antimicrobial activity against Staphylococcus aureus RN4220 harboring pAT392 containing rdmC-like gene by broth microdilution method.
Assay [4] has as its system Escherichia coli. The experiment in a line: Antimicrobial activity against Escherichia coli AG100A harboring pAT392 containing rdmC-like gene by broth microdilution method.
The subject of assay [5] is Escherichia coli. The experiment in a line: Antimicrobial activity against Escherichia coli AG100A harboring pAT392 containing mph(B) and rdmC-like genes by broth microdilution method.
In assay [6] the test system is Staphylococcus aureus. The experiment in a line: Antimicrobial activity against Staphylococcus aureus RN4220 harboring pAT392 containing mph(B) gene by broth microdilution method.
For assay [7], the system named is Enterococcus faecalis. The experiment in a line: Antimicrobial activity against Enterococcus faecalis JH2-2 harboring empty vector by broth microdilution method.
Assay [8] deals with Escherichia coli. The assay is described as follows: Antimicrobial activity against Escherichia coli AG100A harboring pAT392 containing mph(B) gene by broth microdilution method.
Assay [9] relates to Staphylococcus aureus. The assay is described as follows: Antimicrobial activity against Staphylococcus aureus RN4220 harboring pAT392 containing mph(B) and rdmC-like genes by broth microdilution method.
Assay [10] relates to Enterococcus faecalis. The assay is described as follows: Antimicrobial activity against Enterococcus faecalis JH2-2 harboring pAT392 containing rdmC-like gene by broth microdilution method.
The test system of assay [11] is Staphylococcus aureus. The assay is described as follows: Antimicrobial activity against Staphylococcus aureus RN4220 harboring empty vector by broth microdilution method.
In assay [12] the test system is Enterococcus faecalis. The experiment in a line: Antimicrobial activity against Enterococcus faecalis JH2-2 harboring pAT392 containing mph(B) gene by broth microdilution method.
The subject of assay [13] is Enterococcus faecalis. The assay is described as follows: Antimicrobial activity against Enterococcus faecalis JH2-2 harboring pAT392 containing mph(B) and rdmC-like gene by broth microdilution method.
For assay [14], the system named is Escherichia coli. The experiment in a line: Antimicrobial activity against Escherichia coli AG100A harboring empty vector by broth microdilution method.

As for `CC[C@H]1OC(=O)[C@H](C)[C@@H](O[C@H]2C[C@@](C)(OC)[C@@H](O)[C@H](C)O2)[C@H](C)[C@@H](O[C@@H]2O[C@H](C)C[C@H](N(C)C)[C@H]2O)[C@](C)(O)C[C@@H](C)CN(C)[C@H](C)[C@@H](O)[C@]1(C)O` [AZITHROMYCIN], the minimum inhibitory concentration (MIC) in assay [1] and in assay [2] was 0.12 µg/mL (≈ 0.16 µM) throughout.

With `CCC[C@@H]1C[C@@H](C(=O)N[C@@H]([C@H]2O[C@H](SC)[C@H](O)[C@@H](O)[C@H]2O)[C@H](C)Cl)N(C)C1` [CLINDAMYCIN], the MIC in assay [1] turned out to be 0.03 µg/mL (≈ 0.0706 µM); in assay [3] it was 0.06 µg/mL (≈ 0.141 µM); in assay [4], 2 µg/mL (≈ 4.71 µM); in [5] it was 2 µg/mL (≈ 4.71 µM); in assay [6], 0.06 µg/mL (≈ 0.141 µM); in assay [7], 2 µg/mL (≈ 4.71 µM). The MIC in [8] came to 2 µg/mL (≈ 4.71 µM); in [9], 0.06 µg/mL (≈ 0.141 µM); in assay [10], 2 µg/mL (≈ 4.71 µM); in assay [2] it was 0.03 µg/mL (≈ 0.0706 µM); in [11], 0.06 µg/mL (≈ 0.141 µM); in assay [12], 2 µg/mL (≈ 4.71 µM). Besides, the MIC in assay [13] and in assay [14] was 2 µg/mL (≈ 4.71 µM) in each case.

Regarding `CO[C@@H]1[C@@H](O[C@@H]2O[C@H](C)[C@@H](O[C@H]3C[C@@](C)(O)[C@@H](OC(=O)CC(C)C)[C@H](C)O3)[C@H](N(C)C)[C@H]2O)[C@@H](CC=O)C[C@@H](C)[C@@H](O)/C=C/C=C/C[C@@H](C)OC(=O)C[C@H]1OC(C)=O` [JOSAMYCIN], the minimal inhibitory concentration (MIC) in assay [1] amounted to 0.25 µg/mL (≈ 0.302 µM); in assay [3] it was 1 µg/mL (≈ 1.21 µM); in assay [4] it was 8 µg/mL (≈ 9.66 µM); in assay [5], 16 µg/mL (≈ 19.3 µM); in assay [6], 1 µg/mL (≈ 1.21 µM); in assay [7], 1 µg/mL (≈ 1.21 µM). In addition, the MIC came out at 16 µg/mL (≈ 19.3 µM) in assay [8]; 1 µg/mL (≈ 1.21 µM) in assay [9]; 1 µg/mL (≈ 1.21 µM) in assay [10]; 0.25 µg/mL (≈ 0.302 µM) in [2]; 1 µg/mL (≈ 1.21 µM) in [11]; 1 µg/mL (≈ 1.21 µM) in assay [12]. Besides, the results for the minimum inhibitory concentration (MIC) in assay [13] and in assay [14] were 1 µg/mL (≈ 1.21 µM) and 8 µg/mL (≈ 9.66 µM), respectively.

As for `CC[C@H]1OC(=O)[C@H](C)[C@@H](O[C@H]2C[C@@](C)(OC)[C@@H](O)[C@H](C)O2)[C@H](C)[C@@H](O[C@@H]2O[C@H](C)C[C@H](N(C)C)[C@H]2O)[C@](C)(O)C[C@@H](C)C(=O)[C@H](C)[C@@H](O)[C@]1(C)O` [ERYTHROMYCIN], the MIC in assay [1] is 0.06 µg/mL (≈ 0.0818 µM); in assay [3], 0.25 µg/mL (≈ 0.341 µM); in assay [4] it was 2 µg/mL (≈ 2.73 µM); in assay [5], 64 µg/mL (≈ 87.2 µM); in assay [6], 0.25 µg/mL (≈ 0.341 µM); in [7], 0.25 µg/mL (≈ 0.341 µM). The minimal inhibitory concentration (MIC) in [8] is 64 µg/mL (≈ 87.2 µM); in assay [9], 0.25 µg/mL (≈ 0.341 µM); in assay [10], 0.25 µg/mL (≈ 0.341 µM); in assay [2], 0.06 µg/mL (≈ 0.0818 µM); in assay [11], 0.25 µg/mL (≈ 0.341 µM); in [12] it was 0.25 µg/mL (≈ 0.341 µM). Besides, the minimal inhibitory concentration (MIC) in assay [13] turned out to be 0.25 µg/mL (≈ 0.341 µM); in assay [14], 2 µg/mL (≈ 2.73 µM).

For SPIRAMYCIN, the minimum inhibitory concentration (MIC) in assay [1] was 0.5 µg/mL; in assay [3], 4 µg/mL; in assay [4], 200 µg/mL; in [5], 1000 µg/mL; in assay [6], 8 µg/mL; in [7], 0.5 µg/mL. In addition, the MIC turned out to be 400 µg/mL in assay [8]; 32 µg/mL in assay [9]; 2 µg/mL in assay [10]; 8 µg/mL in assay [2]; 4 µg/mL in [11]; 8 µg/mL in [12]. In addition, the MIC was determined as 64 µg/mL in assay [13] and 8 µg/mL in assay [14].

For the molecule `CC[C@H]1OC(=O)C[C@@H](O)[C@H](C)[C@@H](O[C@@H]2O[C@H](C)[C@@H](O[C@H]3C[C@@](C)(O)[C@@H](O)[C@H](C)O3)[C@H](N(C)C)[C@H]2O)[C@@H](CC=O)C[C@@H](C)C(=O)/C=C/C(C)=C/[C@@H]1CO[C@@H]1O[C@H](C)[C@@H](O)[C@@H](OC)[C@H]1OC` [TYLOSIN], the MIC in assay [1] is 0.5 µg/mL (≈ 0.546 µM); in assay [3], 1 µg/mL (≈ 1.09 µM); in assay [4], 16 µg/mL (≈ 17.5 µM); in assay [5], greater than 128 µg/mL; in assay [6], 1 µg/mL (≈ 1.09 µM); in assay [7] it was 1 µg/mL (≈ 1.09 µM). In addition, the minimum inhibitory concentration (MIC) in [8] turned out to be 128 µg/mL (≈ 140 µM); in assay [9], 16 µg/mL (≈ 17.5 µM); in [10], 1 µg/mL (≈ 1.09 µM); in [2], 0.5 µg/mL (≈ 0.546 µM); in assay [11] it was 1 µg/mL (≈ 1.09 µM); in assay [12], 1 µg/mL (≈ 1.09 µM). The MIC in [13] and in [14] was 16 µg/mL (≈ 17.5 µM) each time.

What is called MIC is the smallest concentration in the dilution series that meets the test's criterion for growth inhibition.
